Results as given in US8609690B2, “Aryl- and heteroarylcarbonyl derivatives of substituted nortropanes, medicaments containing such compounds and their use” (Boehringer Ingelheim International GmbH, priority 2008, dated 2013).

Biological target: T1, 11β-HSD 1 (Homo sapiens, UniProt P28845)
T1 construct: detecting cortisol generated from cortisterone by human liver microsomes; from tissue; host or cells: human liver microsomes
Assay: In vitro inhibition of 11β-HSD 1, HTRF detection of cortisol generated by human liver microsomes
Format: biochemical
Conditions: 1 μM test compound, 100% indicates no inhibition, zero or below zero indicates complete inhibition (relative to carbenoxolone)
Procedure, shortened: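 Human liver microsomes with test compound were incubated 1 h at 37 °C in Tris buffer, pH 6.0, with 200 μM NADPH and 80 nM cortisone. Cortisol formed was detected by competitive HTRF immunoassay (665/615 nm ratio) and calibrated against a cortisol standard curve. Values are activities at 1 μM compound relative to carbenoxolone, where 100% indicates no inhibition.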

T1 sequence (P28845 whole entry): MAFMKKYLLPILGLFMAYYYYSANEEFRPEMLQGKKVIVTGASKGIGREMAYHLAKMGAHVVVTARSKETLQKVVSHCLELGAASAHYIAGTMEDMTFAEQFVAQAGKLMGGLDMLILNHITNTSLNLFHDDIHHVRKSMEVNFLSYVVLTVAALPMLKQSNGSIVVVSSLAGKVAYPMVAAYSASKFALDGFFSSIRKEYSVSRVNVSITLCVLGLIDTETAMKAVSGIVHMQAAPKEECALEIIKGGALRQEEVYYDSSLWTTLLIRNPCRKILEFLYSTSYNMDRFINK

SMILES	Inhibitory activity on 11β-HSD 1, % CTL [% CTL]
O=C(c1ccc2[nH]ccc2c1)N1[C@@H]2CC[C@H]1C[C@@H](c1ccc(F)cc1)C2 [Example 113, endo-[3-(4-Fluoro-phenyl)-8-aza-bicyclo[3.2.1]oct-8-yl]-(1H-indol-5-yl)-methanone]	−23
O=C(c1ccc2c(c1)OCO2)N1[C@@H]2CC[C@H]1C[C@@H](c1ccc(F)cc1)C2 [Example 114, endo-Benzo[1,3]dioxol-5-yl-[3-(4-fluoro-phenyl)-8-aza-bicyclo[3.2.1]oct-8-yl]-methanone]	−10
CC(=O)Nc1ccc(C(=O)N2[C@@H]3CC[C@H]2C[C@@H](c2ccc(F)cc2)C3)cc1 [Example 115, endo-N-{4-[3-(4-Fluoro-phenyl)-8-aza-bicyclo[3.2.1]octane-8-carbonyl]-phenyl}-acetamide]	33
COc1ccc(C(=O)N2[C@@H]3CC[C@H]2C[C@@H](c2ccc(F)cc2)C3)c(OC)c1 [Example 117, endo-(2,4-Dimethoxy-phenyl)-[3-(4-fluoro-phenyl)-8-aza-bicyclo[3.2.1]oct-8-yl]-methanone]	53
COc1ccc(C(=O)N2[C@@H]3CC[C@H]2C[C@@H](c2ccc(F)cc2)C3)cc1OC [Example 118, endo-(3,4-Dimethoxy-phenyl)-[3-(4-fluoro-phenyl)-8-aza-bicyclo[3.2.1]oct-8-yl]-methanone]	−28
NS(=O)(=O)c1ccc(C(=O)N2[C@@H]3CC[C@H]2C[C@@H](c2ccc(F)cc2)C3)cc1 [Example 119, endo-4-[3-(4-Fluoro-phenyl)-8-aza-bicyclo[3.2.1]octane-8-carbonyl]-benzenesulfonamide]	95
O=C(c1ccc2nn[nH]c2c1)N1[C@@H]2CC[C@H]1C[C@@H](c1ccc(F)cc1)C2 [Example 120, endo-(3H-Benzotriazol-5-yl)-[3-(4-fluoro-phenyl)-8-aza-bicyclo[3.2.1]oct-8-yl]-methanone]	25
O=C(c1ccc(CO)cc1)N1[C@@H]2CC[C@H]1C[C@@H](c1ccc(F)cc1)C2 [Example 121, endo-[3-(4-Fluoro-phenyl)-8-aza-bicyclo[3.2.1]oct-8-yl]-(4-hydroxymethyl-phenyl)-methanone]	−28
Cc1ccc(C(=O)N2[C@@H]3CC[C@H]2C[C@@H](c2ccc(F)cc2)C3)c(C)c1 [Example 122, endo-(2,4-Dimethyl-phenyl)-[3-(4-fluoro-phenyl)-8-aza-bicyclo[3.2.1]oct-8-yl]-methanone]	63
COc1cc(OC)cc(C(=O)N2[C@@H]3CC[C@H]2C[C@@H](c2ccc(F)cc2)C3)c1 [Example 123, endo-(3,5-Dimethoxy-phenyl)-[3-(4-fluoro-phenyl)-8-aza-bicyclo[3.2.1]oct-8-yl]-methanone]	−17
CC(=O)c1cccc(C(=O)N2[C@@H]3CC[C@H]2C[C@@H](c2ccc(F)cc2)C3)c1 [Example 124, endo-1-{3-[3-(4-Fluoro-phenyl)-8-aza-bicyclo[3.2.1]octane-8-carbonyl]-phenyl}-ethanone]	59
O=C(c1cccc(Cl)c1)N1[C@@H]2CC[C@H]1C[C@@H](c1ccc(F)cc1)C2 [Example 125, endo-(3-Chloro-phenyl)-[3-(4-fluoro-phenyl)-8-aza-bicyclo[3.2.1]oct-8-yl]-methanone]	7
CC(=O)c1ccccc1C(=O)N1[C@@H]2CC[C@H]1C[C@@H](c1ccc(F)cc1)C2 [Example 126, endo-1-{2-[3-(4-Fluoro-phenyl)-8-aza-bicyclo[3.2.1]octane-8-carbonyl]-phenyl}-ethanone]	63
COc1cccc(C(=O)N2[C@@H]3CC[C@H]2C[C@@H](c2ccc(F)cc2)C3)c1OC [Example 127, endo-(2,3-Dimethoxy-phenyl)-[3-(4-fluoro-phenyl)-8-aza-bicyclo[3.2.1]oct-8-yl]-methanone]	85
CC(=O)c1ccc(C(=O)N2[C@@H]3CC[C@H]2C[C@@H](c2ccc(F)cc2)C3)cc1 [Example 128, endo-1-{4-[3-(4-Fluoro-phenyl)-8-aza-bicyclo[3.2.1]octane-8-carbonyl]-phenyl}-ethanone]	79
O=C(c1cccc(O)c1)N1[C@@H]2CC[C@H]1C[C@@H](c1ccc(F)cc1)C2 [Example 129, endo-[3-(4-Fluoro-phenyl)-8-aza-bicyclo[3.2.1]oct-8-yl]-(3-hydroxy-phenyl)-methanone]	−1
O=C(c1ccc(O)cc1)N1[C@@H]2CC[C@H]1C[C@@H](c1ccc(F)cc1)C2 [Example 130, endo-[3-(4-Fluoro-phenyl)-8-aza-bicyclo[3.2.1]oct-8-yl]-(4-hydroxy-phenyl)-methanone]	−47

SMILES	Inhibitory activity on 11β-HSD 1, % CTL [% CTL]
Cn1ccc2cc(C(=O)N3[C@@H]4CC[C@H]3C[C@@H](c3ccc(F)cc3)C4)ccc21 [Example 131, endo-[3-(4-Fluoro-phenyl)-8-aza-bicyclo[3.2.1]oct-8-yl]-(1-methyl-1H-indol-5-yl)-methanone]	−20
Cc1[nH]c2ccc(C(=O)N3[C@@H]4CC[C@H]3C[C@@H](c3ccc(F)cc3)C4)cc2c1C [Example 132, endo-(2,3-Dimethyl-1H-indol-5-yl)-[3-(4-fluoro-phenyl)-8-aza-bicyclo[3.2.1]oct-8-yl]-methanone]	−36
O=C(c1ccc2c(c1)OCCO2)N1C2CCC1CC(c1ccccc1)C2 (stereo not drawn) [Example 133, (2,3-Dihydro-benzo[1,4]dioxin-6-yl)-(3-phenyl-8-aza-bicyclo[3.2.1]oct-8-yl)-methanone]	−28
COc1ccc([C@H]2C[C@H]3CC[C@@H](C2)N3C(=O)c2ccc3c(c2)OCCO3)cc1 [Example 134, endo-(2,3-Dihydro-benzo[1,4]dioxin-6-yl)-[3-(4-methoxy-phenyl)-8-aza-bicyclo[3.2.1]oct-8-yl]-methanone]	−5
COc1ccc([C@@H]2C[C@H]3CC[C@@H](C2)N3C(=O)c2ccc3c(c2)OCCO3)cc1 [Example 135, exo-(2,3-Dihydro-benzo[1,4]dioxin-6-yl)-[3-(4-methoxy-phenyl)-8-aza-bicyclo[3.2.1]oct-8-yl]-methanone]	−35
CC(C)c1ccc([C@H]2C[C@H]3CC[C@@H](C2)N3C(=O)c2ccc3c(c2)OCCO3)cc1 [Example 136, endo-(2,3-Dihydro-benzo[1,4]dioxin-6-yl)-[3-(4-isopropyl-phenyl)-8-aza-bicyclo[3.2.1]oct-8-yl]-methanone]	17
Cc1ccc([C@H]2C[C@H]3CC[C@@H](C2)N3C(=O)c2ccc3c(c2)OCCO3)cc1 [Example 138, endo-(2,3-Dihydro-benzo[1,4]dioxin-6-yl)-(3-p-tolyl-8-aza-bicyclo[3.2.1]oct-8-yl)-methanone]	4
COc1cccc([C@H]2C[C@H]3CC[C@@H](C2)N3C(=O)c2ccc3c(c2)OCCO3)c1 [Example 139, endo-(2,3-Dihydro-benzo[1,4]dioxin-6-yl)-[3-(3-methoxy-phenyl)-8-aza-bicyclo[3.2.1]oct-8-yl]-methanone]	21
O=C(c1ccc2c(c1)OCCO2)N1[C@@H]2CC[C@H]1C[C@@H](c1ccc(OC(F)(F)F)cc1)C2 [Example 140, endo-(2,3-Dihydro-benzo[1,4]dioxin-6-yl)-[3-(4-trifluoromethoxy-phenyl)-8-aza-bicyclo[3.2.1]oct-8-yl]-methanone]	−5
O=C(c1ccc2c(c1)OCCO2)N1[C@@H]2CC[C@H]1C[C@@H](c1cccc(O)c1)C2 [Example 141, endo-(2,3-Dihydro-benzo[1,4]dioxin-6-yl)-[3-(3-hydroxy-phenyl)-8-aza-bicyclo[3.2.1]oct-8-yl]-methanone]	29
O=C(c1ccc2c(c1)OCCO2)N1[C@@H]2CC[C@H]1C[C@@H](c1ccc(O)cc1)C2 [Example 142, endo-(2,3-Dihydro-benzo[1,4]dioxin-6-yl)-[3-(4-hydroxy-phenyl)-8-aza-bicyclo[3.2.1]oct-8-yl]-methanone]	31
C[Si](C)(C)c1ccc([C@H]2C[C@H]3CC[C@@H](C2)N3C(=O)c2ccc3c(c2)OCCO3)cc1 [Example 143, endo-(2,3-Dihydro-benzo[1,4]dioxin-6-yl)-[3-(4-trimethyl-silyl-phenyl)-8-aza-bicyclo[3.2.1]oct-8-yl]-methanone]	58
O=C(c1ccc2c(c1)OCCO2)N1C2CCC1CC(c1ccc(Cl)cc1F)C2 (stereo not drawn) [Example 144, [3-(4-Chloro-2-fluoro-phenyl)-8-aza-bicyclo[3.2.1]oct-8-yl]-(2,3-dihydro-benzo[1,4]dioxin-6-yl)-methanone]	−59
O=C(c1ccc2c(c1)OCCO2)N1C2CCC1CC(c1ccccc1F)C2 (stereo not drawn) [Example 145, (2,3-Dihydro-benzo[1,4]dioxin-6-yl)-[3-(2-fluoro-phenyl)-8-aza-bicyclo[3.2.1]oct-8-yl]-methanone]	−37
NCc1ccc(C2CC3CCC(C2)N3C(=O)c2ccc3c(c2)OCCO3)cc1 (stereo not drawn) [Example 146, [3-(4-Aminomethyl-phenyl)-8-aza-bicyclo[3.2.1]oct-8-yl]-(2,3-dihydro-benzo[1,4]dioxin-6-yl)-methanone]	96
NCc1cccc([C@@H]2C[C@H]3CC[C@@H](C2)N3C(=O)c2ccc3c(c2)OCCO3)c1 [Example 147, exo-[3-(3-Aminomethyl-phenyl)-8-aza-bicyclo[3.2.1]oct-8-yl]-(2,3-dihydro-benzo[1,4]dioxin-6-yl)-methanone]	99
